Measured values reported in the NIST ThermoML archive (doi:10.1016/j.jct.2006.03.014).

Assay: xn = mol fraction of the nth substance listed
Conditions: 101 kPa, Liquid; for viscosity: Capillary tube (Ostwald / Ubbelohde) method; for mass density: Pycnometric method

CC1OC(C)OC(C)O1 (stereo unspecified) [2,4,6-trimethyl-1,3,5-trioxane] + CCCCOC(C)=O
Conditions | mass density, 298.15 K [kg/m3] | mass density, 303.15 K [kg/m3] | mass density, 308.15 K [kg/m3] | viscosity, 298.15 K [mPa·s] | viscosity, 303.15 K [mPa·s] | viscosity, 308.15 K [mPa·s]
x1 = 0.0186 | 878.3 | 873.2 | 868.2 | 0.688 | 0.637 | 0.581
x1 = 0.0368 | 880.3 | 875.1 | 870.1 | 0.693 | 0.641 | 0.586
x1 = 0.0556 | 882.3 | 877.1 | 872 | 0.696 | 0.646 | 0.588
x1 = 0.0744 | 884.3 | 879.1 | 874 | 0.697 | 0.65 | 0.592
x1 = 0.093 | 886.3 | 881 | 875.9 | 0.699 | 0.653 | 0.594
x1 = 0.1873 | 896.5 | 891.1 | 885.7 | 0.713 | 0.668 | 0.612
x1 = 0.2831 | 906.9 | 901.4 | 895.9 | 0.728 | 0.685 | 0.629
x1 = 0.3807 | 917.7 | 912 | 906.4 | 0.755 | 0.706 | 0.649
x1 = 0.4799 | 928.6 | 922.9 | 917.2 | 0.786 | 0.735 | 0.676
x1 = 0.5802 | 939.8 | 934.1 | 928.2 | 0.831 | 0.771 | 0.708
x1 = 0.6828 | 951.5 | 945.7 | 939.7 | 0.882 | 0.816 | 0.746
x1 = 0.7863 | 963.2 | 957.6 | 951.4 | 0.945 | 0.867 | 0.793
x1 = 0.8924 | 975.6 | 969.9 | 963.7 | 1.025 | 0.933 | 0.848
x1 = 1 | 988.4 | 982.6 | 976.4 | 1.107 | 1.001 | 0.907

CC1OC(C)OC(C)O1 (stereo unspecified) [2,4,6-trimethyl-1,3,5-trioxane] + CCOC(C)=O
Conditions | mass density, 298.15 K [kg/m3] | mass density, 303.15 K [kg/m3] | mass density, 308.15 K [kg/m3] | viscosity, 298.15 K [mPa·s] | viscosity, 303.15 K [mPa·s] | viscosity, 308.15 K [mPa·s]
x1 = 0.0203 | 896.3 | 890 | 883.7 | 0.435 | 0.405 | 0.392
x1 = 0.04 | 898.7 | 892.4 | 886 | 0.439 | 0.411 | 0.395
x1 = 0.0601 | 901.1 | 894.8 | 888.5 | 0.446 | 0.419 | 0.4
x1 = 0.0799 | 903.5 | 897.2 | 890.8 | 0.451 | 0.421 | 0.407
x1 = 0.1002 | 905.8 | 899.6 | 893.2 | 0.457 | 0.428 | 0.412
x1 = 0.1957 | 916.6 | 910.4 | 904 | 0.491 | 0.455 | 0.439
x1 = 0.3 | 927.8 | 921.6 | 915.2 | 0.53 | 0.492 | 0.468
x1 = 0.4 | 937.9 | 931.8 | 925.4 | 0.567 | 0.53 | 0.503
x1 = 0.5001 | 947.4 | 941.3 | 935 | 0.61 | 0.574 | 0.539
x1 = 0.6001 | 956.4 | 950.4 | 944.1 | 0.663 | 0.628 | 0.586
x1 = 0.7 | 965 | 959 | 952.7 | 0.739 | 0.691 | 0.639
x1 = 0.8001 | 973.1 | 967.3 | 960.9 | 0.832 | 0.766 | 0.708
x1 = 0.9 | 980.9 | 975.1 | 968.8 | 0.947 | 0.861 | 0.789
x1 = 1 | 988.4 | 982.6 | 976.4 | 1.107 | 1.001 | 0.907

CC1OC(C)OC(C)O1 (stereo unspecified) [2,4,6-trimethyl-1,3,5-trioxane] + COC(C)=O
Conditions | mass density, 298.15 K [kg/m3] | mass density, 303.15 K [kg/m3] | mass density, 308.15 K [kg/m3] | viscosity, 298.15 K [mPa·s] | viscosity, 303.15 K [mPa·s] | viscosity, 308.15 K [mPa·s]
x1 = 0.0203 | 928.4 | 921.5 | 918 | 0.378 | 0.359 | 0.345
x1 = 0.0405 | 930.1 | 923.3 | 919.7 | 0.388 | 0.367 | 0.35
x1 = 0.0601 | 931.8 | 925 | 921.4 | 0.398 | 0.373 | 0.355
x1 = 0.0807 | 933.4 | 926.7 | 923.1 | 0.408 | 0.38 | 0.359
x1 = 0.1002 | 935 | 928.4 | 924.7 | 0.416 | 0.386 | 0.362
x1 = 0.201 | 942.9 | 936.6 | 932.6 | 0.455 | 0.41 | 0.372
x1 = 0.3009 | 950.3 | 944.2 | 939.8 | 0.489 | 0.429 | 0.374
x1 = 0.397 | 956.9 | 951 | 946.3 | 0.522 | 0.45 | 0.377
x1 = 0.5001 | 963.5 | 957.7 | 952.7 | 0.566 | 0.481 | 0.39
x1 = 0.7002 | 974.8 | 969.1 | 963.5 | 0.696 | 0.593 | 0.479
x1 = 0.8005 | 979.8 | 974 | 968.2 | 0.795 | 0.688 | 0.57
x1 = 0.9001 | 984.3 | 978.5 | 972.5 | 0.925 | 0.816 | 0.704
x1 = 1 | 988.4 | 982.6 | 976.4 | 1.107 | 1.001 | 0.907
